Columns and labels:
[1] = Body weight of chronic renal failure model mice given lubiprostone; type: in vivo; conditions: adenine-diet mice; lubiprostone 50 or 500 μg/kg orally once daily for 12 days; FIG. 1
Experimental: (§1) Chronic renal failure model mice to which lubiprostone was administered were prepared according to a method consisting of the following processes to [4]. The body weight of mice was measured on a weekly basis, and blood pressure was measured by a tailcuff method.
(§2) [1] Male C57BL/6 mice (purchased from Clea Japan, Inc.) were fed on an ordinary feed (CE-2 from Clea Japan, Inc.) until 6 weeks of age.
(§3) [2] At 7 weeks of age, the mice were divided into an ordinary fed group fed on the ordinary feed (control) and an adenine-diet fed group fed on an ordinary feed containing 0.2% adenine (from Wako) (adenine-diet).
[3] […]
In the 4 groups (the ordinary fed group, the corn-oil administration group, the lubiprostone 50 administration group, and the lubiprostone 500 administration group), the body weight of mice at 7 weeks of age (immediately after adenine-diet feeding), at 9 weeks of age (at 2 weeks of age after adenine-diet feeding), at 11 weeks of age (at 4 weeks of age after adenine-diet feeding), at 13 weeks of age (immediately after lubiprostone administration), and at cervical dislocation (at 13/7 [≈1.86] weeks after lubiprostone administration) was measured; the results are shown in FIG. 1.

[2] = test system: chronic renal failure model mice; test: BUN and hemoglobin level in blood of chronic renal failure model mice (i-STAT); type: in vivo
Experimental: The present invention will be more specifically described below with reference to Examples. However, these Examples are not intended to limit the technical scope of the present invention. In Examples, to confirm that the administration of lubiprostone (trade name: Amitiza) could ameliorate renal function, chronic renal failure model mice were prepared by causing mice to eat adenine and analysis was performed using the chronic renal failure model mice. The chronic renal failure model mice are mice in which nephropathy occurs by the crystallization of the eaten adenine in the uriniferous tubule in the form of insoluble 2,8-dihydroxyadenine (Cozzolino, M. et al. Kidney Int. 64, 441-450 (2003) and Tamagaki, K. et al. Nephrol. Dial. Transplant 21, 651-659 (2006)). All experimental animals were operated after approval by the Ethics Committee of Tohoku University School of Medicine.
as §1, §2, §3
[3] […]
Blood was collected according to an established method from the chronic renal failure model mice to which lubiprostone was administered prepared by the method described in Example 1, and the level of BUN in the blood of the mice was measured using i-STAT (from Fuso) (FIG. 2).

[3] = test system: chronic renal failure model mice; test: Histological analysis of renal tissue (PAS, MTS, picrosirius red) of chronic renal failure model mice; type: in vivo
Experimental: as §1, §2, §3
(§4) [3] The adenine-diet fed group was fed by returning the feed to the ordinary feed after 6 weeks of adenine-diet feeding (at 13 weeks of age) and divided into 3 administration groups (“corn-oil administration group” [vehicle], “lubiprostone 50 administration group” [Lubi50], and “lubiprostone 500 administration group” [Lubi500]; corn oil, 50 μg/kg (mouse body weight) of lubiprostone dissolved in corn oil [Amitiza capsule] [from Abbot Japan Co., Ltd.], and 500 μg/kg (mouse body weight) of lubiprostone dissolved in corn oil [from Abbot Japan Co., Ltd.] were forcibly orally administered using a sound to the “corn-oil administration group”, “lubiprostone 50 administration group”, and “lubiprostone 500 administration group”, respectively once daily for 12 days.
[4] After 24 hours, the mice were subjected to cervical dislocation.
(§5) Renal tissue sections were prepared to perform detailed renal tissue analysis. The renal tissue of the chronic renal failure model mice to which lubiprostone was administered prepared by the method described in Example 1 was fixed in 10% neutral-buffer formalin and embedded in paraffin. The paraffin-embedded renal tissue was sliced and analyzed using 3 histological staining methods (periodic acid-Schiff stain [PAS], Masson's trichrome stain [MTS], and picrosirius red stain) (FIG. 3).

F4/80 = test: DAB staining of renal failure marker protein F4/80 in renal tissue sections; type: in vivo, mice; conditions: lubiprostone 50 or 500 μg/kg vs corn oil administration group; FIG. 4 upper
Experimental: as §4, §5
(§6) F4/80 and αSMA are known as renal failure markers. […]

αSMA = test: DAB staining of renal failure marker protein αSMA in renal tissue sections; type: in vivo, mice; conditions: lubiprostone 50 or 500 μg/kg vs corn oil administration group; FIG. 4 lower
Experimental: as §4, §5, §6

[4] = test system: Tnfa, Il6, Pai-1, and Ccl2; test: Quantitative PCR of nephritis-related marker mRNA in whole kidney; type: in vivo, mice
Experimental: [3] […]
(§7) In addition, 8 renal failure markers other than F4/80 and αSMA (4 nephritis-related markers [Tnfa, Il6, Pai-1, and Ccl2] and 4 fibrosis-related markers [Col1a1, Col3a1, Tgfb1, and Acta2]) were also analyzed. […] The expression level of mRNA of genes of the 8 renal failure markers (the 4 nephritis-related markers and the 4 fibrosis-related markers) was detected by performing quantitative PCR using Fast start universal probe master (from Roche Co., Ltd.) under the conditions described in the following 1) to 2). […]
(§8) The number of PCR cycles at which each PCR product reaches a certain amount (threshold cycle: Ct value) was measured using Baseline software (from Applied Biosystems Co., Ltd.); the relative Ct value of the cDNA amplification product of the gene of each of the 8 renal failure markers (the 4 nephritis-related markers and the 4 fibrosis-related markers) based on the Ct value of the cDNA amplification product of the GAPDH gene was determined by a comparative Ct method (delta-delta Ct method); and the relative amount of cDNA of the gene of each of the 8 renal failure markers (the 4 nephritis-related markers and the 4 fibrosis-related markers), i.e., the relative amount of mRNA of the gene of each of the 8 renal failure markers (the 4 nephritis-related markers and the 4 fibrosis-related markers), was calculated from the relative Ct value (see the ordinate of FIG. 5).

[5] = test system: Col1a1, Col3a1, Tgfb1, and Acta2; test: Quantitative PCR of fibrosis-related marker mRNA in whole kidney; type: in vivo, mice
Experimental: [3] […]
as §7, §8

[6] = lubiprostone 500 administration group (500 μg/kg), Dunnett test, FIG. 5

CCCCC(F)(F)C(=O)CC[C@H]1[C@H](O)CC(=O)[C@@H]1CCCCCCC(=O)O [lubiprostone, (−)-7-[(2R,4aR,5R,7aR)-2-(1,1-difluoropentyl)-2-hydroxy-6-oxooctahydrocyclopenta[b]pyran-5-yl]heptanoic acid]
recovery of body weight after return to ordinary feed [1]: did not affect the recovery of body weight | level of hemoglobin (Hb) in the blood ([2]; chronic renal failure model mice given lubiprostone): did not change | increase in the blood BUN level ([2]; lubiprostone 50 or 500 μg/kg orally once daily for 12 days vs corn oil administration group, FIG. 2): suppressed in a manner dependent on the dose of lubiprostone | blood BUN level, statistical difference to the corn oil administration group ([2]; lubiprostone 500 administration group (500 μg/kg), Dunnett test p<0.05, FIG. 2): a significant difference was noted | fibrosis of the kidney, collagen fiber staining by picrosirius red stain, renal tissue sections ([3]; lubiprostone 50 or 500 μg/kg vs corn oil administration group, FIG. 3 panel A bottom): the fibrosis of the kidney was suppressed | fibrosis of the kidney, collagen fiber staining by MTS method, renal tissue sections ([3]; lubiprostone 50 or 500 μg/kg vs corn oil administration group, FIG. 3 panel A middle): the fibrosis of the kidney was suppressed | uriniferous tubule, PAS stain of renal tissue sections ([3]; lubiprostone 50 or 500 μg/kg vs corn oil administration group, FIG. 3 panel A top): recovery of the uriniferous tubule was noted | fibrosis of the kidney, collagen fiber staining by MTS method, whole kidney ([3]; lubiprostone 50 or 500 μg/kg vs corn oil administration group, FIG. 3 panel B top): the fibrosis of the kidney was suppressed | decrease of the renal uriniferous tubule (tubules area, MTS method, whole kidney) ([3]; lubiprostone 50 or 500 μg/kg vs corn oil administration group, FIG. 3 panels B bottom and C): suppressed in a manner dependent on the dose of lubiprostone | proportion of the renal uriniferous tubule in the whole kidney, statistical difference to the corn oil administration group ([3]; lubiprostone 500 administration group (500 μg/kg), Dunnett test p<0.01, FIG. 3 panel C): a significant difference was noted | increase in the expression of renal failure marker F4/80 protein (F4/80): suppressed | increase in the expression of renal failure marker αSMA protein (αSMA): suppressed | mRNA of 3 nephritis-related markers (excluding Il6), statistical difference to the corn oil administration group [4, 6]: a significant difference was noted | expression level of mRNA of the 4 nephritis-related markers (Tnfa, Il6, Pai-1, Ccl2) ([4]; relative to GAPDH, lubiprostone 50 or 500 μg/kg vs corn oil administration group, FIG. 5 panel A): decreased the expression level of mRNA | mRNA of the 4 fibrosis-related markers, statistical difference to the corn oil administration group [5, 6]: a significant difference was noted | expression level of mRNA of the 4 fibrosis-related markers (Col1a1, Col3a1, Tgfb1, Acta2) ([5]; relative to GAPDH, lubiprostone 50 or 500 μg/kg vs corn oil administration group, FIG. 5 panel B): decreased the expression level of mRNA

Source: patent publication US20160228403A1, “AGENT FOR PREVENTING OR AMELIORATING RENAL DYSFUNCTION” (TOHOKU UNIVERSITY, priority 2013, published 2016)
